Data from ChEMBL document CHEMBL1909046, “DrugMatrix in vitro pharmacology data”.

Assays:
[1] = DRUGMATRIX: Sigma2 radioligand binding (ligand: [3H] Ifenprodil); assay type: cell membranes, Rattus norvegicus, Wistar, Brain, Membrane; conditions: Not Active = under 50% inhibition at 10 µM
Substance-P receptor = Substance-P receptor (Homo sapiens, UniProt P25103); assay type: cell membranes, Membrane; conditions: cho; note: in other assays of this panel Not Active means under 50% inhibition at 10 µM
Cytochrome P450 3A4 = Cytochrome P450 3A4 (Homo sapiens, UniProt P08684); conditions: bti-tn-5b1-4; note: in other assays of this panel Not Active means under 50% inhibition at 10 µM
[2] = biological target: C-C chemokine receptor type 2 (Homo sapiens, UniProt P41597); assay type: cell membranes, CHO-K1, Membrane; conditions: cho-k1; note: in other assays of this panel Not Active means under 50% inhibition at 10 µM
Interstitial collagenase = biological target: T1, Interstitial collagenase (Homo sapiens, UniProt P03956); assay: biochemical; assay type: tissue-based, Rheumatoid synovial fibroblasts;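 note: MMP-1 enzyme inhibition assay using a peptide substrate; in other assays of this panel Not Active means under 50% inhibition at 10 µM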
T1 sequence (P03956 whole entry): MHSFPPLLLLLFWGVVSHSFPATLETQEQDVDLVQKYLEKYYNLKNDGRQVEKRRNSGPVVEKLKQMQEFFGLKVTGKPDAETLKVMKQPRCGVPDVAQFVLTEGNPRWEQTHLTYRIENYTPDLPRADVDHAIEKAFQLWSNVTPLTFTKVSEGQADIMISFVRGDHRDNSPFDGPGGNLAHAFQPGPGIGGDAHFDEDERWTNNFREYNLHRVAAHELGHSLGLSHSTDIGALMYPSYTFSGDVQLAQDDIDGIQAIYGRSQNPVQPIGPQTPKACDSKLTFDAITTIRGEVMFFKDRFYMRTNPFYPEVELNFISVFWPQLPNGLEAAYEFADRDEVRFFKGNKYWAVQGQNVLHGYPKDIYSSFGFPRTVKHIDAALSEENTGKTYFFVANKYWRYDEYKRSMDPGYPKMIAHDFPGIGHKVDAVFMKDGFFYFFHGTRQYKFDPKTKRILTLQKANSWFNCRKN

Substance-K receptor = biological target: T2, Substance-K receptor (Homo sapiens, UniProt P21452); assay type: cell membranes, CHO, Membrane; conditions: cho; note: in other assays of this panel Not Active means under 50% inhibition at 10 µM
T2 sequence (P21452 whole entry): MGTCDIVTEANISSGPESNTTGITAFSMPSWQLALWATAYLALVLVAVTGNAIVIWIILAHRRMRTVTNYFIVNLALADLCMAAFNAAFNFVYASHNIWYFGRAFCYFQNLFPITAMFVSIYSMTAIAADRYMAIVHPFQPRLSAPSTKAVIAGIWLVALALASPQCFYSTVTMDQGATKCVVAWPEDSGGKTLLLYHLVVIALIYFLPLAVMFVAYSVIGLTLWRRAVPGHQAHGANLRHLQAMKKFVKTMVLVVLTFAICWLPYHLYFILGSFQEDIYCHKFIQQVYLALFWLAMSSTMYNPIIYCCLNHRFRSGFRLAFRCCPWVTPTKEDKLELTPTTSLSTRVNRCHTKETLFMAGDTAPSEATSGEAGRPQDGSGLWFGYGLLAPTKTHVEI

Cytochrome P450 3A4, sequence (P08684 whole entry): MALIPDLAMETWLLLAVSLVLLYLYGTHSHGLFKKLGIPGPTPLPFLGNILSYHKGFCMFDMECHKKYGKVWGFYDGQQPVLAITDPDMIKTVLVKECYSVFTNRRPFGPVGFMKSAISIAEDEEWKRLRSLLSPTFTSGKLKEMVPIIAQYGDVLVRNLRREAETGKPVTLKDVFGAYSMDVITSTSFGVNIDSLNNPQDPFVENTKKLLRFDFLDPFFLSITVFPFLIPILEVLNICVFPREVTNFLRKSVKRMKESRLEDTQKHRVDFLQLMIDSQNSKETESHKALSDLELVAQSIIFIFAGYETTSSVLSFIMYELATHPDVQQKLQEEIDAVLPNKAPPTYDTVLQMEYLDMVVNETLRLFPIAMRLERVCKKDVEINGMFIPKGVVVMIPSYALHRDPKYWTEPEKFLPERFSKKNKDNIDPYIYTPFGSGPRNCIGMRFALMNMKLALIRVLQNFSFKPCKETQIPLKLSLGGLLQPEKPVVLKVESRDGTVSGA
Substance-P receptor, sequence (P25103 whole entry): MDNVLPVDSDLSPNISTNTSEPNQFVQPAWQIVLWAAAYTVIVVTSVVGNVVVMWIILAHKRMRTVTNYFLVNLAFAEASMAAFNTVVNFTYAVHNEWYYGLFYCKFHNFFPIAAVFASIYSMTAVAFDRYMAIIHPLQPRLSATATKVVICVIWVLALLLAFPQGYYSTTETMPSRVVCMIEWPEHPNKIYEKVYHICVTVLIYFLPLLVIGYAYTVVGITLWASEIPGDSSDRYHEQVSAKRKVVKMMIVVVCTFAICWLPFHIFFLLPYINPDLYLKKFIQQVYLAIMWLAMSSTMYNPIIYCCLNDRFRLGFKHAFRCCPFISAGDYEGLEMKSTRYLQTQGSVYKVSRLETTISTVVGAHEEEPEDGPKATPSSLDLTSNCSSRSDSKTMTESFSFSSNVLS
C-C chemokine receptor type 2, sequence (P41597 whole entry): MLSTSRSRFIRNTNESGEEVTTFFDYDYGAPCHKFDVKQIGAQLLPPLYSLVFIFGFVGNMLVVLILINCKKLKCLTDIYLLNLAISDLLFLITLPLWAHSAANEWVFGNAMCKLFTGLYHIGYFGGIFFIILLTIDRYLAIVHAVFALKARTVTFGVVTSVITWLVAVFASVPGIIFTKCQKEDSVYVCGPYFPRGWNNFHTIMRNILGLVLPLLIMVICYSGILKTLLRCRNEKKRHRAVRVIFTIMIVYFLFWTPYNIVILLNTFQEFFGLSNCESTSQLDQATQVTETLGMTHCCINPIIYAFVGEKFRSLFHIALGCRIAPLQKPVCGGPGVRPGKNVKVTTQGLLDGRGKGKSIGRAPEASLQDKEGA

CCCCN1CCCCC1C(=O)Nc1c(C)cccc1C.Cl (centres undefined) [BUPIVACAINE HYDROCHLORIDE]
Not Active: IC50 [1] | Ki [1] | IC50 (Substance-P receptor) | IC50 (Cytochrome P450 3A4) | Ki (Cytochrome P450 3A4) | IC50 [2] | IC50 (Interstitial collagenase) | IC50 (Substance-K receptor)

C[C@@]12C(=O)OC(=O)[C@]1(C)[C@H]1CC[C@@H]2O1 [CANTHARIDIN]
Not Active: IC50 [1] | Ki [1] | IC50 (Substance-P receptor) | IC50 (Cytochrome P450 3A4) | Ki (Cytochrome P450 3A4) | IC50 [2] | IC50 (Interstitial collagenase) | IC50 (Substance-K receptor)

ClC(Cl)Cl [CHLOROFORM]
Not Active: IC50 [1] | Ki [1] | IC50 (Substance-P receptor) | IC50 (Cytochrome P450 3A4) | Ki (Cytochrome P450 3A4) | IC50 [2] | IC50 (Interstitial collagenase) | IC50 (Substance-K receptor)

C=C1CC[C@H](O)C/C1=C/C=C1\CCC[C@]2(C)[C@@H]([C@H](C)CCCC(C)C)CC[C@@H]12 [CHOLECALCIFEROL]
Not Active: IC50 [1] | Ki [1] | IC50 (Substance-P receptor) | IC50 (Cytochrome P450 3A4) | Ki (Cytochrome P450 3A4) | IC50 [2] | IC50 (Interstitial collagenase) | IC50 (Substance-K receptor)

C[N+](C)(C)CCO.[Cl-] [CHOLINE CHLORIDE]
Not Active: IC50 [1] | Ki [1] | IC50 (Substance-P receptor) | IC50 (Cytochrome P450 3A4) | Ki (Cytochrome P450 3A4) | IC50 [2] | IC50 (Interstitial collagenase) | IC50 (Substance-K receptor)

CC(=O)OCC(=O)[C@@]1(O)CC[C@H]2[C@@H]3CCC4=CC(=O)CC[C@]4(C)[C@H]3C(=O)C[C@@]21C [CORTISONE ACETATE]
Not Active: IC50 [1] | Ki [1] | IC50 (Substance-P receptor) | IC50 (Cytochrome P450 3A4) | Ki (Cytochrome P450 3A4) | IC50 [2] | IC50 (Interstitial collagenase) | IC50 (Substance-K receptor)

O=c1ccc2ccccc2o1 [COUMARIN]
Not Active: IC50 [1] | Ki [1] | IC50 (Substance-P receptor) | IC50 (Cytochrome P450 3A4) | Ki (Cytochrome P450 3A4) | IC50 [2] | IC50 (Interstitial collagenase) | IC50 (Substance-K receptor)

CN(C)/N=N/c1[nH]cnc1C(N)=O [DACARBAZINE]
Not Active: IC50 [1] | Ki [1] | IC50 (Substance-P receptor) | IC50 (Cytochrome P450 3A4) | Ki (Cytochrome P450 3A4) | IC50 [2] | IC50 (Interstitial collagenase) | IC50 (Substance-K receptor)

COc1ccc2c(c1)[C@]13CCCC[C@@H]1[C@H](C2)N(C)CC3 [DEXTROMETHORPHAN]
Not Active: IC50 [1] | Ki [1] | IC50 (Substance-P receptor) | IC50 (Cytochrome P450 3A4) | Ki (Cytochrome P450 3A4) | IC50 [2] | IC50 (Interstitial collagenase) | IC50 (Substance-K receptor)

CC(=O)Nc1c(I)c(NC(C)=O)c(I)c(C(=O)O)c1I [DIATRIZOIC ACID]
Not Active: IC50 [1] | Ki [1] | IC50 (Substance-P receptor) | IC50 (Cytochrome P450 3A4) | Ki (Cytochrome P450 3A4) | IC50 [2] | IC50 (Interstitial collagenase) | IC50 (Substance-K receptor)

COP(=O)(OC)OC=C(Cl)Cl [DICHLORVOS]
Not Active: IC50 [1] | Ki [1] | IC50 (Substance-P receptor) | IC50 (Cytochrome P450 3A4) | Ki (Cytochrome P450 3A4) | IC50 [2] | IC50 (Interstitial collagenase) | IC50 (Substance-K receptor)

O=C(O)Cc1ccccc1Nc1c(Cl)cccc1Cl [DICLOFENAC]
Not Active: IC50 [1] | Ki [1] | IC50 (Substance-P receptor) | IC50 (Cytochrome P450 3A4) | Ki (Cytochrome P450 3A4) | IC50 [2] | IC50 (Interstitial collagenase) | IC50 (Substance-K receptor)

C[C@H]1O[C@@H](O[C@H]2[C@@H](O)C[C@H](O[C@H]3[C@@H](O)C[C@H](O[C@H]4CC[C@@]5(C)[C@H](CC[C@@H]6[C@@H]5CC[C@]5(C)[C@@H](C7=CC(=O)OC7)CC[C@]65O)C4)O[C@@H]3C)O[C@@H]2C)C[C@H](O)[C@@H]1O [DIGITOXIN]
Not Active: IC50 [1] | Ki [1] | IC50 (Substance-P receptor) | IC50 (Cytochrome P450 3A4) | Ki (Cytochrome P450 3A4) | IC50 [2] | IC50 (Interstitial collagenase) | IC50 (Substance-K receptor)

CCN1CC(CCN2CCOCC2)C(c2ccccc2)(c2ccccc2)C1=O (centres undefined) [DOXAPRAM]
Not Active: IC50 [1] | Ki [1] | IC50 (Substance-P receptor) | IC50 (Cytochrome P450 3A4) | Ki (Cytochrome P450 3A4) | IC50 [2] | IC50 (Interstitial collagenase) | IC50 (Substance-K receptor)

Cn1c(=O)c2c(ncn2CC2OCCO2)n(C)c1=O [DOXOFYLLINE]
Not Active: IC50 [1] | Ki [1] | IC50 (Substance-P receptor) | IC50 (Cytochrome P450 3A4) | Ki (Cytochrome P450 3A4) | IC50 [2] | IC50 (Interstitial collagenase) | IC50 (Substance-K receptor)

COc1cccc2c1C(=O)c1c(O)c3c(c(O)c1C2=O)C[C@@](O)(C(=O)CO)C[C@@H]3O[C@H]1C[C@H](N)[C@H](O)[C@H](C)O1 [DOXORUBICIN]
Not Active: IC50 [1] | Ki [1] | IC50 (Substance-P receptor) | IC50 (Cytochrome P450 3A4) | Ki (Cytochrome P450 3A4) | IC50 [2] | IC50 (Interstitial collagenase) | IC50 (Substance-K receptor)

COc1cccc2c1C(=O)c1c(O)c3c(c(O)c1C2=O)C[C@@](O)(C(=O)CO)C[C@@H]3O[C@H]1C[C@H](N)[C@@H](O)[C@H](C)O1 [EPIRUBICIN]
Not Active: IC50 [1] | Ki [1] | IC50 (Substance-P receptor) | IC50 (Cytochrome P450 3A4) | Ki (Cytochrome P450 3A4) | IC50 [2] | IC50 (Interstitial collagenase) | IC50 (Substance-K receptor)

C[C@]12CC[C@@H]3c4ccc(OC(=O)c5ccccc5)cc4CC[C@H]3[C@@H]1CC[C@@H]2O [ESTRADIOL BENZOATE]
Not Active: IC50 [1] | Ki [1] | IC50 (Substance-P receptor) | IC50 (Cytochrome P450 3A4) | Ki (Cytochrome P450 3A4) | IC50 [2] | IC50 (Interstitial collagenase) | IC50 (Substance-K receptor)

C[C@]12CC[C@@H]3c4ccc(O)cc4CC[C@H]3[C@@H]1CC[C@@H]2O [ESTRADIOL]
Not Active: IC50 [1] | Ki [1] | IC50 (Substance-P receptor) | IC50 (Cytochrome P450 3A4) | Ki (Cytochrome P450 3A4) | IC50 [2] | IC50 (Interstitial collagenase) | IC50 (Substance-K receptor)

CC[C@@H](CO)NCCN[C@@H](CC)CO [ETHAMBUTOL]
Not Active: IC50 [1] | Ki [1] | IC50 (Substance-P receptor) | IC50 (Cytochrome P450 3A4) | Ki (Cytochrome P450 3A4) | IC50 [2] | IC50 (Interstitial collagenase) | IC50 (Substance-K receptor)

CC1(C)O[C@@H]2C[C@H]3[C@@H]4C[C@H](F)C5=CC(=O)C=C[C@]5(C)[C@H]4[C@@H](O)C[C@]3(C)[C@]2(C(=O)CO)O1 [FLUNISOLIDE]
Not Active: IC50 [1] | Ki [1] | IC50 (Substance-P receptor) | IC50 (Cytochrome P450 3A4) | Ki (Cytochrome P450 3A4) | IC50 [2] | IC50 (Interstitial collagenase) | IC50 (Substance-K receptor)

CC1(C)O[C@@H]2C[C@H]3[C@@H]4C[C@H](F)C5=CC(=O)C=C[C@]5(C)[C@@]4(F)[C@@H](O)C[C@]3(C)[C@]2(C(=O)CO)O1 [FLUOCINOLONE ACETONIDE]
Not Active: IC50 [1] | Ki [1] | IC50 (Substance-P receptor) | IC50 (Cytochrome P450 3A4) | Ki (Cytochrome P450 3A4) | IC50 [2] | IC50 (Interstitial collagenase) | IC50 (Substance-K receptor)

CC1(C)O[C@@H]2C[C@H]3[C@@H]4C[C@H](F)C5=CC(=O)CC[C@]5(C)[C@H]4[C@@H](O)C[C@]3(C)[C@]2(C(=O)CO)O1 [FLURANDRENOLIDE]
Not Active: IC50 [1] | Ki [1] | IC50 (Substance-P receptor) | IC50 (Cytochrome P450 3A4) | Ki (Cytochrome P450 3A4) | IC50 [2] | IC50 (Interstitial collagenase) | IC50 (Substance-K receptor)
